In patent publication US20260240842A1, “METHODS TO PREVENT THERAPY RESISTANCE IN MELANOMA VIA BLOCKING GENOMIC INSTABILITY” (THE REGENTS OF THE UNIVERSITY OF CALIFORNIA, priority 2022, published 2026):

System: M229 and M245 cell lines
Experiment: WGS of short-term treated cell lines: treatment-specific ecDNA+CGR genomic spans
Type: cell-based, human
Conditions: co-treatment with MAPKi for 10 to 11 days, FIG. 5H
Excerpt: FIGS. 5A-5H. Resistance-driver ecDNAs and HSRs dynamically track with resistance and DNA-PKi prevents size-expansion of ecDNAs and CGRs early on MAPKi treatment. FIGS. 5A to 5C, Metaphase DNA-FISH of paired parental and acquired resistant BRAF^V600MUT (5A and 5B) or NRAS^Q61MUT (5C) cell lines without or with drug withdrawal showing ecDNA- or HSR-amplicons harboring BRAF, RAF1 or NRAS. Left, representative images; right, quantifications per cell. Ruler, 15 μm. P values (Unpaired two-tailed Student's t-test): *, p<0.05; **, p<0.01; ***, p<0.001. […] FIG. 5G: Representative images (left) and quantification (right) of metaphase DNA-FISH showing HSR harboring BRAF in M249 cells treated with vehicle or BRAFi+MEKi, with or without NU7026 and/or ABT888 for 31 days. […] FIG. 5H: Average total genomic spans of treatment-specific ecDNAs+CGRs in M229 and M245 cell lines (background ecDNA+CGR spans detected in vehicle-treated cells were filtered). […]
Genomic DNA (gDNA) and total RNA were extracted from frozen tumor tissue preserved in RNALater or snap-frozen tumor tissue using the QIAGEN AllPrep DNA/RNA Mini Kit and the Ambion mirVana miRNA Isolation Kit. […] After library construction, indexed libraries were quantified for equal molar pooling and paired-end sequenced with a read length of 2×150 bp on the Illumina NovaSeq 6000 S4 platform. […]

O=c1cc(N2CCOCC2)oc2c1ccc1ccccc12 [NU7026]
MAPKi-elicited treatment-specific ecDNA+CGR genomic spans: blunted the expansion of ecDNA+CGR genomic spans in both cell lines
